Reference: article PMC6960228, “Ethoxysanguinarine, a Novel Direct Activator of AMP-Activated Protein Kinase, Induces Autophagy and Exhibits Therapeutic Potential in Breast Cancer Cells” (Frontiers in Pharmacology, 2020)

Tests used:
MDA-MB-453 = experiment: MTT cytotoxicity assay; assay type: cell-based; conditions: Homo sapiens, MDA-MB-453, 24 h, means ± SD of quadruplicate determinations
Text: Human BC cell lines MCF-7, MDA-MB-231, DMA-MB-436, SK-BR3, MDA-MB-468, MDA-MB-453, and MDA-MB-435S and non-tumorigenic MCF-10A human mammary epithelial cells were obtained from American Type Culture Collection (ATCC; Manassas, VA, USA). MCF-7, SK-BR3, MDA-MB-231, and MDA-MB-436 cells were maintained in Dulbecco’s modified Eagle’s medium (DMEM; high glucose; Gibco; Thermo Fisher Scientific, Inc., Waltham, MA, USA) supplemented with 10% fetal bovine serum (FBS; HyClone; Logan, UT, USA) and antibiotics and incubated in a humidified atmosphere with 5% CO2 at 37°C. MDA-MB-468, MDA-MB-453, and MDA-MB-435S cells were maintained in Leibovitz’s L-15 (Gibco) supplemented with 10% FBS and antibiotics and incubated in a humidified atmosphere without CO2 at 37°C. MCF-10A cells were maintained in DMEM/F12 medium containing 5% horse serum (HS), insulin ([…]), epidermal growth factor (EGF, 20 ng/mL), choleratoxin ([…]), hydrocortisone ([…]), penicillin (50 U/mL), and streptomycin (50 U/mL), and incubated in a humidified atmosphere with CO2 at 37°C.
Cells were seeded into 96-well plate and pre-cultured for 24 h, then treated with Eth for 24. Cell cytotoxicity was determined by MTT assay. The absorbance was measured at 490 nm by automated microplated reader (BioTek Instruments, Inc., Winooski, VT, USA), and the cell death rate was calculated as followed: inhibition rate (%) = (average A490 of the control group − average A490 of the experimental group)/(average A490 of the control group − average A490 of the blank group) × 100%. Cell viability was estimated by trypan blue dye exclusion.

[1] = tested on: ACC, Glut1, Glut3, and Glut4 in BC cells; experiment: Western blot of energy metabolism proteins; assay type: cell-based, human
Method: Cells were lysed in radioimmunoprecipitation assay buffer containing 50 mM Tris, pH 8.0, 150 mM NaCl, 0.1% SDS, 0.5% sodium deoxycholate, 1% NP-40, 1 mM DTT, 1 mM NaF, 1 mM sodium orthovanadate, 1 mM phenylmethylsulfonyl fluoride (PMSF; Sigma-Aldrich; Merck KGaA), and 1% protease inhibitors cocktail (EMD Millipore, Billerica, MA, USA). Protein concentration was determined using the Bradford method. Equal amounts of sample (25 µg) were separated by SDS-PAGE (8–12% gels). Electrophoresed proteins were then transferred onto polyvinylidene fluoride membranes (EMD Millipore, Billerica, MA, USA). The membranes were blocked with 5% skimmed milk in Tris-buffered saline at room temperature for 1 h. Following blocking, membranes were incubated overnight at 4°C with primary antibodies and then rinsed with Tris-buffered saline with Tween 20. […]

[2] = Body weight of xenografted mice; assay type: in vivo, nude mice; conditions: i.p. 2 mg/kg four times a week for 4 weeks
Method: Female nude immunodeficient mice (nu/nu) (weighing ~16 g, 5-week-old) were purchased from Hunan SJA Laboratory Animal Co., Ltd. (Changsha, China), and maintained under specific pathogen-free conditions. Mice were given free access to sterile water and to a standard diet, and maintained under controlled conditions of temperature (22–24°C), humidity (40–70%), and light (12 h light-dark cycles). The present study was approved by Animal Ethics Committee of Hubei University of Medicine. The mice were subcutaneously injected with human BC MDA-MB-231 cells (5 × 10^6 cells which were suspended in 100 μL DMEM) into the right flank of each mouse. Treatments started when tumors reached a palpable size (0.5 cm in diameter). Mice were randomly divided into the following two groups: control group (vehicle; 0.8% DMSO, 12% cremophor, and 8% ethanol in normal saline; n = 8) and Eth-treated group (intraperitoneal injection of […] Eth; n = 8). The mice were treated 5 times per week for a total of […]. Caliper measurements of the longest perpendicular tumor diameters were performed twice a week to estimate the tumor volume, using the following formula: 4π/3 × (width/2)^2 × (length/2), representing the three-dimensional volume of an ellipse. Animals were sacrificed when tumors reached 1.5 cm or if the mice appeared moribund to prevent unnecessary morbidity to the mice. […]

With `CCOC1c2c(ccc3c2OCO3)-c2ccc3cc4c(cc3c2N1C)OCO4` (stereo not shown) [Eth, Ethoxysanguinarine] the IC50 (MDA-MB-453) was 7.06 ± 0.59 µM, the “expression and activation of ACC” value [1] was “no significant effect” and the “expression of Glut1, Glut3, and Glut4” value ([1]; MCF-7 or MDA-MB-231 cells, 24 h) was “downregulated”. The “body weight of the mice” value [2] was “did not significantly reduce the body weight”.
